Source: patent US20220072128A1, “ULTRASOUND-INDUCED CONVECTION FOR DRUG DELIVERY AND TO DRIVE GLYMPHATIC OR LYMPHATIC FLOWS” (The Board of Trustees of the Leland Stanford Junior …, priority 2020, published 2022)
“Also recorded” adds a separate entry of the source.

Key:
[1] = Quantitative T1-mapping MRI of glymphatic transport of intrathecally (cisterna magna) injected Gd-chelate into the brain, transcranial ultrasound vs sham; format: in vivo, rat; design: mean gadolinium-enhanced volume: unit not given here
Protocol: (§1) Animals. The Institutional Animal Care and Use Committees of Stanford University approved all animal experiments. Tests were performed in 42 male Long-Evans rats with bodyweight 300-350 gm (Charles River Laboratories, Wilmington, Mass., USA). Animals were randomly assigned to one of two groups: (1) no treatment (Sham), and (2) treatment (Ultrasound). Ultrasound (0.25 MI in situ, 7.7% duty cycle for 10 min) or sham was applied transcranially throughout the brain (FIG. 1A). Before each procedure, the fur on the neck was shaved and a cisterna magna injection of a gadolinium (Gd) chelate (Multihance, Bracco Diagnostics, NJ, USA) was performed while the animal was anesthetized under isoflurane. The body temperature, cardiac and respiratory rates, and O2 saturation were monitored throughout the experiment and the isoflurane level was titrated to keep these parameters constant; environmental heating was used to help maintain body temperature. Localizer, FLASH-T1-3D, T1-mapping, and T2*-weighted MR images were taken to visualize glymphatic transport across the brain, to quantify Gd-chelate kinetic parameters, and to evaluate for parenchymal damage. In separate cohorts, either of two different sized optical tracers, a small molecule (IR800CW Carboxylate, LICOR, Lincoln, Nebr., USA; ˜1 kDa) or a large molecule (Panitumumab-IRDye800: ˜150 kDa, 5 nM, produced under GMP at the Leidos Biomedical Research Center, Frederick, Md., USA) (39) were co-delivered with the Gd-chelate to model the delivery of similar-sized therapeutic agents.
Intrathecal Cisterna Magna Injection For anesthesia, the animals were induced with 5% isoflurane in oxygen using an induction chamber and then switched to a maintenance dose of 2%. The animal was positioned in a stereotaxic frame (Stoelting, Wood Dale, Ill., USA), immobilized with ear bars, and then the head flexed to 45 degrees. A 27-gauge catheter (Butterfly Needle, SAI Infusion Technology, Lake Villa, Ill., USA) was inserted in the cisterna magna to inject up to 80 μl of tracers (Gd-chelate: MultiHance, gadobenate dimeglumine; Bracco Diagnostics Inc, NJ, USA; 0.21 ml/kg) slowly over 30 seconds. To model the delivery of similar-sized therapeutic agents, two different sized molecules, free dye (IRDye800CW Carboxylate, LICOR, Lincoln, Nebr., USA; ˜1 kDa; 36 nmol/kg) and IR dye-conjugated antibody (Panitumumab-IRDye800: ˜150 kDa; 0.133 mg/kg) were co-delivered with the Gd-chelate. The respiratory rate (45-50 breaths per minute), and normal body temperature (36.5-37.5° C.) were maintained throughout the experiment through titration of isoflurane dose and with environmental heating.
Magnetic Resonance Imaging Protocol. Magnetic Resonance Imaging (MRI) (an actively-shielded Bruker 7T horizontal bore scanner (Bruker Corp, Billerica Mass.), with International Electric Co. (IECO) gradient drivers, a 120 mm ID shielded gradient insert (600 mT/m, 1000 T/m/s), AVANCE III electronics; 8-channel multi-coil RF and multinuclear capabilities and volume RF coils; and the supporting Paravision 6.0.1 platform) was used to visualize glymphatic transport of Gd-chelate into the brain and to make quantitative T1-maps. The facility provides isoflurane anesthesia in medical-grade oxygen, and physiological monitoring of the subject including ECG, pulse oximetry, respiration, and temperature feedback for core body temperature maintenance by warm airflow over the animal. Following cisterna magna contrast agent injection, an MRI compatible animal FUS system (Image Guided Therapy—IGT, Pessac, France) was used in all experiments. Animals were placed in a prone position in a plastic stereotactic frame that has a single channel radiofrequency transmit-receive head coil (IGT) which is coupled to the FUS system. Animals were immobilized in the frame with ear bars and a bite bar. Noninvasive, MRI-compatible monitors for the respiratory rate and body temperature were used during the imaging session. […]

[2] = Near-infrared fluorescence imaging of brain slices after intrathecal co-delivery of optical tracers, transcranial ultrasound vs sham; format: in vivo, rat; conditions: about 2 hours after intrathecal delivery, 10 min ultrasound
Protocol: as §1, with “In separate cohorts, either of two different sized optical tracers, a small molecule (IR800CW Carboxylate, LICOR, Lincoln, Nebr., USA; ˜1 kDa) or a large molecule (Panitumumab-IRDye800: ˜150 kDa, 5 nM, produced under GMP at the Leidos Biomedical Research Center, Frederick, Md., USA) (39) were co-delivered with the Gd-chelate to model the delivery of similar-sized therapeutic agents.” left out
Fluorescence Imaging. […] Tissue sections were thaw-mounted on microscope glass slides (Fisher, Pittsburgh, Pa.), fixed the tissue-slides using 4% paraformaldehyde, and applied DAPI for fluorescence imaging. […]

In the case of `CNC[C@H](O)[C@@H](O)[C@H](O)[C@H](O)CO.CNC[C@H](O)[C@@H](O)[C@H](O)[C@H](O)CO.O=C([O-])CN(CCN(CC(=O)[O-])CC(=O)O)CCN(CC(=O)O)C(COCc1ccccc1)C(=O)[O-].[Gd+3]` (stereo not drawn) [Gd-chelate, gadobenate dimeglumine], the “time at which perivascular influx of CSF into the brain is initially observed” value ([1]; 3D T1w MRI, after intrathecal administration) is reported as 12 min, the “brain volume containing a resolvable amount of contrast agent, ultrasound versus sham” value ([1]; T1-mapping MRI over time) is reported as “significantly larger volume of brain” and the “time by which cleared from the CSF-ISF spaces” value ([1]; T1w MRI after cisternal injection) is reported as ≤ 3 h. The “Gd-chelate deposition in the brain” value ([1]; T1w MRI, 24-72 h after ultrasound intervention) was “no any evidence of Gd deposition; also recorded: no prolonged Gd-chelate deposition”, the mean gadolinium-enhanced volume ([1]; Ultrasound cohort (0.25 MI, 10 min, applied at 23 min), 12 min baseline) was 0.18±0.07 and the mean gadolinium-enhanced volume ([1]; Ultrasound cohort, 35 min) was 0.43±0.16. For the same compound, the mean gadolinium-enhanced volume ([1]; Ultrasound cohort, 70 min) was 0.44±0.17, the mean gadolinium-enhanced volume ([1]; Ultrasound cohort, 105 min) was 0.45±0.25 and the mean gadolinium-enhanced volume ([1]; Ultrasound cohort, 180 min) was 0.18±0.24. The mean gadolinium-enhanced volume ([1]; Ultrasound cohort, 240 min) was 0.17±0.24, the “increase of peak parenchymal uptake with ultrasound” value ([1]; low-intensity transcranial scanning ultrasound vs sham) was 72-101% and the mean gadolinium-enhanced volume ([1]; sham cohort, 12 min after intrathecal injection, mean ± S.D.) was 0.17±0.084. It also gave a mean gadolinium-enhanced volume ([1]; sham cohort, 35 min) of 0.25±0.15, a mean gadolinium-enhanced volume ([1]; sham cohort, 70 min) of 0.22±0.1 and a mean gadolinium-enhanced volume ([1]; sham cohort, 105 min) of 0.23±0.11. The mean gadolinium-enhanced volume ([1]; sham cohort, 180 min) was 0.11±0.12, the mean gadolinium-enhanced volume ([1]; sham cohort, 240 min) was 0.06±0.04 and the “clearance timeline from the brain” value ([1]; with ultrasound) was 3 h. The “residual tracer in the brain” value ([1]; with ultrasound, 3 h post-injection) was “increased residual tracer in the brain”, the “time of peak parenchymal uptake” value ([1]; with ultrasound, from injection) was 105 min and the “time of peak brain concentration” value ([1]; without further intervention (no ultrasound), after intrathecal injection) was “approximately 35 min”. The “time to clear from the brain interstitial compartment” value ([1]; without further intervention, from injection) was ≤ 3 h.
For “Panitumumab-IRDye800: therapeutic antibody panitumumab (~150 kDa, EGFR-targeted) conjugated with the IR dye; large optical tracer”, the “brain penetration (near-infrared dye-enhanced area), ultrasound compared to sham” value [2] was “significantly greater degree with ultrasound” and the “brain penetration (near-infrared dye-enhanced area), ultrasound compared to sham” value ([2]; listed as panitumumab) was “penetrated to a greater degree into the brain”.
